Measured values from patent US20090214607A1, “Topical use of teprenone” (SEDERMA, priority 2005, published 2009).

Legend:
[1] = tested on: sunburn cells (SBC) in human skin explants; test: Sunburn cells (SBC) in human skin explants after UVB; type: cell-based; settings: after UVB 2 J/cm^2
Protocol: With a view to determining the action of teprenone as per the invention, the effect of the active substance on the presence of sunburn cells (SBC) and apoptotic cell in human skin explants was investigated.
Human skin explants are treated in a way similar to the preceding experiment of description of the protective role of the teprenone on the catalase activity (obtained from a patient having undergone plastic surgery, cultured with or without teprenone for 48 hours then exposed to UV B radiation (2 J/cm^2). After irradiation, the explants were again cultured in fresh medium with or without teprenone for 24 hours).
SBC were evidenced on paraffin-wax-embedded skin explant sections by staining with […]. SBC, apoptotic keratinocytes with pyknotic nuclei and eosinophilic cytoplasm, are characteristic of mammalian epidermis exposed to UV B radiation.

[2] = Lipid peroxidation of liposomes using H2O2+FeCl2; type: biochemical; settings: vs negative control
Protocol: (§1) In order to determine the action of teprenone as per the invention, the effect of the active substance on the lipid peroxidation of liposomes was analyzed. The liposomes were used to model cutaneous lipids.
In this method, liposomes are exposed to the test compound and a Fenton oxidative system. The peroxidation is determined by spectrophotometry. Trolox, a known anti-free radical agent, is used as the positive control at the same molar concentration as a teprenone.

[3] = tested on: catalase; test: Catalase activity in human skin explants after UVB (Clairborne-Aebi method); type: cell-based; settings: after UVB 2 J/cm2; 0.05 mM
Protocol: Human skin explants obtained from a patient having undergone plastic surgery were cultured with or without teprenone or Trolox (positive control) for 48 hours then exposed to UV B radiation (2 J/cm^2). After irradiation, the explants were again cultured in fresh medium with or without teprenone or Trolox for 24 hours. Similars explants were also used in immunolabeling tests on heat shock proteins (HSP) and in the apoptosis study.
Catalase anti-oxidant activity was determined by the Clairborne-Aebi method. Hydrogen peroxide (H2O2) consumption is directly proportional to catalase activity. The consumption was determined by spectrophotometry at 240 nm

[4] = Lipid peroxidation of liposomes using UVA radiation; type: biochemical; settings: UVA induced, vs negative control
Protocol: as §1
In this method, liposomes are exposed to the test compound and then to UV A radiation. Peroxidation is determined by spectrophotometry at 233 nm.

[5] = tested on: Hsp27; test: Hsp27 immunolabeling in UVB-irradiated human skin explants; type: cell-based; settings: 0.1 mM
Text: (§2) Heat Schock proteins (Hsp) are cellular protective molecules which contribute to the correct proteinic folding, thus preserving the protein activity. Hsp 27 is a protective chaperone protein very present in the keratinocytes at the basal state. In situation of UV stress, cell increases its rate of protection and Hsp 27 is strongly overexpressed. Hsp70 is a chaperone protein less expressed in a basal state but induced in response to the UV, thermics, mechanics or infectious stress.
(§3) Human skin explants are treated in a similar way to the previous experiment (protection on the catalase activity): taken from a plastic surgery, they are cultivated for 48 h in the presence or not, for control, of teprenone (or trolox) at various concentrations, then irradiated or not using a source UVB (2 J/cm2). After irradiation skin explants were post-treated (24 h) or not with teprenone (or trolox) at the same concentrations.
(§4) Explants were embedded in OCT, sectioned using a freezing microtome, and slide mounted. The mounted specimens were immunolabeled with anti-human Hsp antibody.

[6] = tested on: Hsp70; test: Hsp70 immunolabeling in UVB-irradiated human skin explants; type: cell-based; settings: 0.1 mM
Text: as §2, §3, §4

Cc1c(C)c2c(c(C)c1O)CCC(C)(C(=O)O)O2 (centres unmarked) [Trolox, 6-hydroxy-2,5,7,8-tetramethylchroman-2-carboxylic acid]
% SBC (Sun Burn Cells) ([1]; 0.05 mM): 45%
% SBC (Sun Burn Cells) ([1]; 0.1 mM): 30%
Variation of peroxydation ([2]; concentration 2.2 · 10^−2%): −88%
Variation of peroxydation ([2]; concentration 2.2 · 10^−3%): −87%
Variation of peroxydation ([2]; concentration 2.2 · 10^−4%): −83%
Variation of peroxydation ([2]; concentration 7.5 · 10^−3%): −87%
Variation of peroxydation ([2]; concentration 7.5 · 10^−4%): −82%
catalase activity [3]: 90 UI/mg of protein
Variation of peroxydation ([4]; concentration 2.2 · 10^−2%): −86%
Variation of peroxydation ([4]; concentration 2.2 · 10^−3%): −88%
Variation of peroxydation ([4]; concentration 2.2 · 10^−4%): −74%
Variation of peroxydation ([4]; concentration 7.5 · 10^−3%): −88%
Variation of peroxydation ([4]; concentration 7.5 · 10^−4%): −86%
Hsp27: Protection vs. irradiated (%) [5]: 75%
Number of Hsp27 positive cells/cm ([5]; UVB 2 J/cm2, n = 3): 380 cells/cm
Hsp70: Protection vs. irradiated (%) [6]: 100%
Number of Hsp70 positive cells/cm ([6]; UVB 2 J/cm2, n = 3): 40 cells/cm
